# In ChEMBL document CHEMBL4804286, “3-amino-4-(4-(4 (dimethylcarbamoyl) phenyl)-1,4-diazepan-1-yl) thieno [2,3-b] pyridine-2-carboxamide for use in cancer therapy and formulations comprising the same” (2020):
# Values joined by “and” are separate entries in the source; they are usually repeats but may differ in a detail not shown here. Equal entries are not always repeated. Active and inactive are the calls of the source. No cut-off for these calls is given here.
# What was measured:
# [1] = biological target: Peripheral plasma membrane protein CASK (Homo sapiens) (UniProt O14936); experiment: Inhibition of human CASK assessed as percent of control at 2000 nM by KINOMEscan assay relative to control; parameters: scale not given: the % may be the effect or the level left
# [2] = biological target: Cyclin-dependent kinase 5 (Homo sapiens) (UniProt Q00535); experiment: Inhibition of human CDK5 assessed as percent of control at 2000 nM by KINOMEscan assay relative to control; parameters: scale not given: the % may be the effect or the level left
# [3] = biological target: Myotonin-protein kinase (Homo sapiens) (UniProt Q09013); experiment: Inhibition of human DMPK assessed as percent of control at 2000 nM by KINOMEscan assay relative to control; parameters: scale not given: the % may be the effect or the level left
# [4] = tested on: Epidermal growth factor receptor (Homo sapiens), P00533 [L858R]; experiment: Inhibition of human EGFR L858R mutant assessed as percent of control at 2000 nM by KINOMEscan assay relative to control; parameters: scale not given: the % may be the effect or the level left
# [5] = biological target: Mitogen-activated protein kinase 3 (Homo sapiens) (UniProt P27361); experiment: Inhibition of human ERK1 assessed as percent of control at 2000 nM by KINOMEscan assay relative to control; parameters: scale not given: the % may be the effect or the level left
# [6] = biological target: Inhibitor of nuclear factor kappa-B kinase subunit beta (Homo sapiens) (UniProt O14920); experiment: Inhibition of human IKK-beta assessed as percent of control at 2000 nM by KINOMEscan assay relative to control; parameters: scale not given: the % may be the effect or the level left
# [7] = biological target: Insulin receptor (Homo sapiens) (UniProt P06213); experiment: Inhibition of human INSR assessed as percent of control at 2000 nM by KINOMEscan assay relative to control; parameters: scale not given: the % may be the effect or the level left
# [8] = biological target: Mitogen-activated protein kinase 8 (Homo sapiens) (UniProt P45983); experiment: Inhibition of human JNK1 assessed as percent of control at 2000 nM by KINOMEscan assay relative to control; parameters: scale not given: the % may be the effect or the level left
# [9] = biological target: Leucine-rich repeat serine/threonine-protein kinase 2 (Homo sapiens) (UniProt Q5S007); experiment: Inhibition of human LRRK2 assessed as percent of control at 2000 nM by KINOMEscan assay relative to control; parameters: scale not given: the % may be the effect or the level left
# [10] = biological target: Mitogen-activated protein kinase kinase kinase kinase 2 (Homo sapiens) (UniProt Q12851); experiment: Inhibition of human MAP4K2 assessed as percent of control at 2000 nM by KINOMEscan assay relative to control; parameters: scale not given: the % may be the effect or the level left
# [11] = biological target: MAP kinase-interacting serine/threonine-protein kinase 1 (Homo sapiens) (UniProt Q9BUB5); experiment: Inhibition of human MKNK1 assessed as percent of control at 2000 nM by KINOMEscan assay relative to control; parameters: scale not given: the % may be the effect or the level left
# [12] = biological target: Serine/threonine-protein kinase 38-like (Homo sapiens) (UniProt Q9Y2H1); experiment: Inhibition of human NDR2 assessed as percent of control at 2000 nM by KINOMEscan assay relative to control; parameters: scale not given: the % may be the effect or the level left
# [13] = biological target: Serine/threonine-protein kinase PknB (Mycobacterium tuberculosis) (UniProt P9WI81); experiment: Inhibition of Mycobacterium tuberculosis PKNB assessed as percent of control at 2000 nM by KINOMEscan assay relative to control; parameters: scale not given: the % may be the effect or the level left
# [14] = biological target: Serine/threonine-protein kinase PLK4 (Homo sapiens) (UniProt O00444); experiment: Inhibition of human PLK4 assessed as percent of control at 2000 nM by KINOMEscan assay relative to control; parameters: scale not given: the % may be the effect or the level left
# [15] = biological target: Serine/threonine-protein kinase SIK3 (Homo sapiens) (UniProt Q9Y2K2); experiment: Inhibition of human QSK assessed as percent of control at 2000 nM by KINOMEscan assay relative to control; parameters: scale not given: the % may be the effect or the level left
# [16] = biological target: Ribosomal protein S6 kinase alpha-2 (Homo sapiens) (UniProt Q15349); experiment: Inhibition of human C-terminal RSK3 kinase domain 2 assessed as percent of control at 2000 nM by KINOMEscan assay relative to control; parameters: scale not given: the % may be the effect or the level left
# [17] = biological target: Uncharacterized serine/threonine-protein kinase SBK3 (Homo sapiens) (UniProt P0C264); experiment: Inhibition of human SgK110 assessed as percent of control at 2000 nM by KINOMEscan assay relative to control; parameters: scale not given: the % may be the effect or the level left
# [18] = biological target: Serine/threonine-protein kinase Sgk2 (Homo sapiens) (UniProt Q9HBY8); experiment: Inhibition of human SGK2 assessed as percent of control at 2000 nM by KINOMEscan assay relative to control; parameters: scale not given: the % may be the effect or the level left
# [19] = biological target: Tyrosine-protein kinase Srms (Homo sapiens) (UniProt Q9H3Y6); experiment: Inhibition of human SRMS assessed as percent of control at 2000 nM by KINOMEscan assay relative to control; parameters: scale not given: the % may be the effect or the level left
# [20] = biological target: Serine/threonine-protein kinase 16 (Homo sapiens) (UniProt O75716); experiment: Inhibition of human STK16 assessed as percent of control at 2000 nM by KINOMEscan assay relative to control; parameters: scale not given: the % may be the effect or the level left
# [21] = biological target: Tyrosine-protein kinase SYK (Homo sapiens) (UniProt P43405); experiment: Inhibition of human SYK assessed as percent of control at 2000 nM by KINOMEscan assay relative to control; parameters: scale not given: the % may be the effect or the level left
# [22] = biological target: Serine/threonine-protein kinase tousled-like 1 (Homo sapiens) (UniProt Q9UKI8); experiment: Inhibition of human TLK1 assessed as percent of control at 2000 nM by KINOMEscan assay relative to control; parameters: scale not given: the % may be the effect or the level left
# [23] = biological target: TRAF2 and NCK-interacting protein kinase (Homo sapiens) (UniProt Q9UKE5); experiment: Inhibition of human TNIK assessed as percent of control at 2000 nM by KINOMEscan assay relative to control; parameters: scale not given: the % may be the effect or the level left
# [24] = biological target: Non-receptor tyrosine-protein kinase TNK1 (Homo sapiens) (UniProt Q13470); experiment: Inhibition of human TNK1 assessed as percent of control at 2000 nM by KINOMEscan assay relative to control; parameters: scale not given: the % may be the effect or the level left
# [25] = biological target: Tyrosine-protein kinase receptor TYRO3 (Homo sapiens) (UniProt Q06418); experiment: Inhibition of human TYRO3 assessed as percent of control at 2000 nM by KINOMEscan assay relative to control; parameters: scale not given: the % may be the effect or the level left
# [26] = biological target: Serine/threonine-protein kinase ULK1 (Homo sapiens) (UniProt O75385); experiment: Inhibition of human ULK1 assessed as percent of control at 2000 nM by KINOMEscan assay relative to control; parameters: scale not given: the % may be the effect or the level left
# [27] = biological target: Wee1-like protein kinase (Homo sapiens) (UniProt P30291); experiment: Inhibition of human WEE1 assessed as percent of control at 2000 nM by KINOMEscan assay relative to control; parameters: scale not given: the % may be the effect or the level left
# [28] = biological target: Serine/threonine-protein kinase WNK3 (Homo sapiens) (UniProt Q9BYP7); experiment: Inhibition of human WNK3 assessed as percent of control at 2000 nM by KINOMEscan assay relative to control; parameters: scale not given: the % may be the effect or the level left
# [29] = biological target: Serine/threonine-protein kinase 32C (Homo sapiens) (UniProt Q86UX6); experiment: Inhibition of human YANK3 assessed as percent of control at 2000 nM by KINOMEscan assay relative to control; parameters: scale not given: the % may be the effect or the level left
# MDA-MB-468 = experiment: Antitumor activity against human MDA-MB-468 cells xenografted in female immunodeficient NSG mouse assessed as decrease in tumor weight at 250 ppm, po incorporated into medicated diet for 13 days followed by 5 mg/kg, po dose administered daily and after 37 days administered 8 mg/kg, po dose; assay type: functional, organism-based
# [30] = biological target: Glycogen synthase kinase-3 alpha (Homo sapiens) (UniProt P49840); details: INHIBITOR, dose 2000.0 nM
# Description: Inhibition of human GSK3A at 2000 nM by KINOMEscan assay
# Sequence of Tyrosine-protein kinase Srms (Homo sapiens) (Q9H3Y6 whole entry): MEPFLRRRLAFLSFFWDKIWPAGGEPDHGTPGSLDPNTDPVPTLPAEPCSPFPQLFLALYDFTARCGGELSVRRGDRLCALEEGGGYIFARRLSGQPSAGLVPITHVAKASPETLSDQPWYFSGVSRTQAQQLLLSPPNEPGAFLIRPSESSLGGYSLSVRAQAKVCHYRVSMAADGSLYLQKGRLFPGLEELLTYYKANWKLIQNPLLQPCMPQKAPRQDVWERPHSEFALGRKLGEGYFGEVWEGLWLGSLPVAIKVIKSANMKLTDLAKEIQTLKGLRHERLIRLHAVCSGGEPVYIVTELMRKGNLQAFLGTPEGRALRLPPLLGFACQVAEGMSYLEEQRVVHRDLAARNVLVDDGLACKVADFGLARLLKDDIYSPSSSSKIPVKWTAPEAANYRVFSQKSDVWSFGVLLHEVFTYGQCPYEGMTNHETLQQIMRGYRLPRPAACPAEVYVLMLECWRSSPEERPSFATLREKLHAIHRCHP
# Sequence of Mitogen-activated protein kinase 3 (Homo sapiens) (P27361 whole entry): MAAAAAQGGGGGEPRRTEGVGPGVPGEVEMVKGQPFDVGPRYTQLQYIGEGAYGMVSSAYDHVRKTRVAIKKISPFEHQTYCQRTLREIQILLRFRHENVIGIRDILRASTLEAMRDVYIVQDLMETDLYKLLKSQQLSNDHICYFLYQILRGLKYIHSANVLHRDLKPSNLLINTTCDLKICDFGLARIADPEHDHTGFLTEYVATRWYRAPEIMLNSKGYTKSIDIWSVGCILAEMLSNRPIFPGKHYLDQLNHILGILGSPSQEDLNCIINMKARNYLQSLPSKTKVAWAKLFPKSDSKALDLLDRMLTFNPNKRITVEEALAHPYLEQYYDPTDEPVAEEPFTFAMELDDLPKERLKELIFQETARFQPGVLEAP
# Sequence of Serine/threonine-protein kinase tousled-like 1 (Homo sapiens) (Q9UKI8 whole entry): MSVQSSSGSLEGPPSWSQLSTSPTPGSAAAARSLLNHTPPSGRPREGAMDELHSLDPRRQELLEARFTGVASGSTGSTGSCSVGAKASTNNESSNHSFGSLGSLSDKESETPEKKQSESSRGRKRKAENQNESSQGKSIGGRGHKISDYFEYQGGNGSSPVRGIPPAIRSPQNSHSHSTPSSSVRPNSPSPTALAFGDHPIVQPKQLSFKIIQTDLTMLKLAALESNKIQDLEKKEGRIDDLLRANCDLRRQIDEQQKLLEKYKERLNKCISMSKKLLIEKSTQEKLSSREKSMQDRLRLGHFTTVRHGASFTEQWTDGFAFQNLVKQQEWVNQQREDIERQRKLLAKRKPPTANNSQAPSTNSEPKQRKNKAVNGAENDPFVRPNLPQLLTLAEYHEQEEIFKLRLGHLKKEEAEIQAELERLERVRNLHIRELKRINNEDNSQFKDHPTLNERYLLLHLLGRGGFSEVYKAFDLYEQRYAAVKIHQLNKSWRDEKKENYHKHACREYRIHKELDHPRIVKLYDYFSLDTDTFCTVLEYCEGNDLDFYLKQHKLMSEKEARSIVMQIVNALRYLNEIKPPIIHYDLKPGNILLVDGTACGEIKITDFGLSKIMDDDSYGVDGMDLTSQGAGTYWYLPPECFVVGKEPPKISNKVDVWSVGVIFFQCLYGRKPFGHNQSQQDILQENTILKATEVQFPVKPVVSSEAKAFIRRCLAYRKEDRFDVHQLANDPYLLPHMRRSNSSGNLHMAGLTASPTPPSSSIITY
# Sequence of Peripheral plasma membrane protein CASK (Homo sapiens) (O14936 whole entry): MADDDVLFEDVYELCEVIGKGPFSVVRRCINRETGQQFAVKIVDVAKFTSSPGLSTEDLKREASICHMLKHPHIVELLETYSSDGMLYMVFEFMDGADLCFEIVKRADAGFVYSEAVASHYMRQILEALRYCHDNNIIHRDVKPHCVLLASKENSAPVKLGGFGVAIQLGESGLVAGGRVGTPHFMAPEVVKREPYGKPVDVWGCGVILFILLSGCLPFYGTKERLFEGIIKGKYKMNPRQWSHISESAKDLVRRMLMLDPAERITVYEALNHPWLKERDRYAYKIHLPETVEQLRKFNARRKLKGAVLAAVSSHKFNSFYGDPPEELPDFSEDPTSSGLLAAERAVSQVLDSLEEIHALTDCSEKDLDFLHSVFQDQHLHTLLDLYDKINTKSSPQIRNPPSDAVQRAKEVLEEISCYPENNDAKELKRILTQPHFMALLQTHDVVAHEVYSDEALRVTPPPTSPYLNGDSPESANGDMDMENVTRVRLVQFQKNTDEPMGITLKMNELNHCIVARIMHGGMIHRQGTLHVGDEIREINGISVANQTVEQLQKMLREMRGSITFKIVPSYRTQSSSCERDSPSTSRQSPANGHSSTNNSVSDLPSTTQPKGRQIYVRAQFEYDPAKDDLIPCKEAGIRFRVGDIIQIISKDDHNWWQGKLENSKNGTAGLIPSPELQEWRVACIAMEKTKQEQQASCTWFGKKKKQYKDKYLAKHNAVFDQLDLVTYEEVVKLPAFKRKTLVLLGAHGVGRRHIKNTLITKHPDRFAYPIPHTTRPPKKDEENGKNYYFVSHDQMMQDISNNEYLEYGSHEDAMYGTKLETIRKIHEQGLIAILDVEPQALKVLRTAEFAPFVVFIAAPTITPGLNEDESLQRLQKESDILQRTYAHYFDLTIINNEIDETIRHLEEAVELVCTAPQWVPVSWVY
# Sequence of Serine/threonine-protein kinase 32C (Homo sapiens) (Q86UX6 whole entry): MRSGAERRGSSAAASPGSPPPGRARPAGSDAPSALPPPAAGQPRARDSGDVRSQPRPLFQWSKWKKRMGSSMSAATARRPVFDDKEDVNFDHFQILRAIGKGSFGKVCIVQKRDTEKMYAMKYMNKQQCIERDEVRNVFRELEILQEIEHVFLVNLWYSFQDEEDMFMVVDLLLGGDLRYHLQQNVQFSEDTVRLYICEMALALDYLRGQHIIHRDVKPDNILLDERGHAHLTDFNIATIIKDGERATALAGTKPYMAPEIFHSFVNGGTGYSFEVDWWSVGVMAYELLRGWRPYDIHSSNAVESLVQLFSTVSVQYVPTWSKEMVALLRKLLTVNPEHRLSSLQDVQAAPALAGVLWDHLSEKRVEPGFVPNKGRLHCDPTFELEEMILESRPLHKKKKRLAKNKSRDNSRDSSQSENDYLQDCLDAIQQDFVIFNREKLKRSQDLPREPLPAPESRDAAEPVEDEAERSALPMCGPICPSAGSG
# Sequence of Serine/threonine-protein kinase ULK1 (Homo sapiens) (O75385 whole entry): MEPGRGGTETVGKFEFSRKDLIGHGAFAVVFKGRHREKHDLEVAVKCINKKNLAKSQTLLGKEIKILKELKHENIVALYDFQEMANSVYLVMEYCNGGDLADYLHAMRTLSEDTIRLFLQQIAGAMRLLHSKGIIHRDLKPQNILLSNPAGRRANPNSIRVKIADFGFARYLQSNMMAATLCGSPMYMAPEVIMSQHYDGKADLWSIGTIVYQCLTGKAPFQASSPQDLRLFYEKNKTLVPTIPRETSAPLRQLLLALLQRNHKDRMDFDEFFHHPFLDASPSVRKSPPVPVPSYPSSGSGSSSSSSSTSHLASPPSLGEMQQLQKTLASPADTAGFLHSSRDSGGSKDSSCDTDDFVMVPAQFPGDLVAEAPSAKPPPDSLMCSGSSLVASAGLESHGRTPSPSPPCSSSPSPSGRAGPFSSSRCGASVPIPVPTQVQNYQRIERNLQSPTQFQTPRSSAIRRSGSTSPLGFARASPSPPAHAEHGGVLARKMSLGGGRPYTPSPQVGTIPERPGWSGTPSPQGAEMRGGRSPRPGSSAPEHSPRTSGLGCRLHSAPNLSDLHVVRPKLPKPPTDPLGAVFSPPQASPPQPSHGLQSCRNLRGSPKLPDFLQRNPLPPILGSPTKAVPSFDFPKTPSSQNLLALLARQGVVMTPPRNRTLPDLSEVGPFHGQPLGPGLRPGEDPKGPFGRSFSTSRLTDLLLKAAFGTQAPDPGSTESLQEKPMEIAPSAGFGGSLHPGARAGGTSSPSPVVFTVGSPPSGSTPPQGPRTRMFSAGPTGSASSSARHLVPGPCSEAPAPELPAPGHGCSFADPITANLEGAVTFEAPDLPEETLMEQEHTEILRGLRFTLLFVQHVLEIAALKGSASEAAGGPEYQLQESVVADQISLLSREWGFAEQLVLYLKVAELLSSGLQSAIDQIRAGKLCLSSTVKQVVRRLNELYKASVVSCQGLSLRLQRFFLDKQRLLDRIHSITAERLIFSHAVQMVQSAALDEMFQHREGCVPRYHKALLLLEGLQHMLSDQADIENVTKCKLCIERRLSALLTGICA
# Sequence of Serine/threonine-protein kinase 16 (Homo sapiens) (O75716 whole entry): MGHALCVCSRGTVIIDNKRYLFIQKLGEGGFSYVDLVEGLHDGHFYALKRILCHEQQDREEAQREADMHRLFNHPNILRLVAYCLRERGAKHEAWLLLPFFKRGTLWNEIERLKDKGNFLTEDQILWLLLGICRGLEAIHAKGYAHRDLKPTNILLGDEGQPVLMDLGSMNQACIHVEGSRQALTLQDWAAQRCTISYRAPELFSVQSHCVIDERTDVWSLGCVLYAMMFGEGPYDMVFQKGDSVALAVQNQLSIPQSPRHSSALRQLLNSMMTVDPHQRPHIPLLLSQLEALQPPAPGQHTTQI
# Sequence of Wee1-like protein kinase (Homo sapiens) (P30291 whole entry, looked up): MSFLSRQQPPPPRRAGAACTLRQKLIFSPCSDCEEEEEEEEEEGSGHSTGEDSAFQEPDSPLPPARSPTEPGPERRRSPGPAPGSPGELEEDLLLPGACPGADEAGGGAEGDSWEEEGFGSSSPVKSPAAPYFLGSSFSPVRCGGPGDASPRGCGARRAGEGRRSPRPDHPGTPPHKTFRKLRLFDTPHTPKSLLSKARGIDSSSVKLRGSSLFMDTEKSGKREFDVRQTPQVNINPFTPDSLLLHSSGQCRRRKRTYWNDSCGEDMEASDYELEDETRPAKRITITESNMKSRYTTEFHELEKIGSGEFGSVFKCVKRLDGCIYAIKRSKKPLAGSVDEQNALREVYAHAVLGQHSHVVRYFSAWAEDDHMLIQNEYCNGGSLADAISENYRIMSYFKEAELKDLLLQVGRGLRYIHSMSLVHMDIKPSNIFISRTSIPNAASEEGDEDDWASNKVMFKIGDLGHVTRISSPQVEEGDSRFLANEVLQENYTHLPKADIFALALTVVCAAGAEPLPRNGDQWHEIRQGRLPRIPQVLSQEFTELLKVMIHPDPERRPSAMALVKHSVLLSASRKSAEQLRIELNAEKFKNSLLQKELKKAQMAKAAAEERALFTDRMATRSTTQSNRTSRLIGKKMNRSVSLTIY
compound,measurement,setting,value
CN(C)C(=O)c1ccc(N2CCCN(c3ccnc4sc(C(N)=O)c(N)c34)CC2)cc1,Activity,[1],71% and 96%
same,Activity,[2],84% and 94%
same,Activity,[3],97%
same,Activity,[4],99% and 93%
same,Activity,[5],100% and 97%
same,Activity,[6],89% and 71%
same,Activity,[7],97% and 80%
same,Activity,[8],68%
same,Activity,[8]; INHIBITOR,30%
same,Activity,[9],94% and 70%
same,Activity,[10],84% and 66%
same,Activity,[11],94% and 79%
same,Activity,[12],99%
same,Activity,[12]; INHIBITOR,36%
same,Activity,[13],100% and 90%
same,Activity,[14],95% and 92%
same,Activity,[15],89% and 97%
same,Activity,[16],100% and 89%
same,Activity,[17],95% and 100%
same,Activity,[18],100% and 81%
same,Activity,[19],81% and 93%
same,Activity,[20],80% and 87%
same,Activity,[21],95% and 100%
same,Activity,[22],97% and 85%
same,Activity,[23],100% and 91%
same,Activity,[24],100%
same,Activity,[25],100%
same,Activity,[26],96% and 72%
same,Activity,[27],100% and 88%
same,Activity,[28],97% and 100%
same,Activity,[29],81% and 97%
same,Activity,MDA-MB-468,Active
same,inhibition,[30],> 65%
